Measured values reported in patent publication US20190125753A1, “COMPOUNDS AND METHODS FOR INCREASING HEMATOPOIESIS” (University of Southern California, priority 2016, published 2019).
pIC50: −log10 of the molar value.

How the values were obtained:
bone marrow cells = experiment: Radiation induced apoptosis, cleaved PARP FACS; type: in vivo; conditions: administered 18 hours before 5Gy radiation; 6 hours after radiation
Description: Since p300/-catenin antagonists such as YH250 up-regulate survivin gene expression, YH250 was tested for the ability to attenuate radiation induced cell apoptosis by detecting cleaved PARP (Poly ADP ribose polymerase-1) using anti-PARP antibody and FACS analysis (BD Bioscience, Cat#562253, anti-PARP clone F21-852). DMSO or YH250 were administrated 18 hours before 5Gy radiation. 6 hours after radiation, bone marrow cells were isolated and stained for cell surface markers (lineage markers, Sca-1, c-kit) and anti-PARP (FIG. 23A).

[1] = molecular target: T1, CBP/γ-catenin interaction (Mus musculus, UniProt P45481); experiment: Co-IP of bone marrow Sca-1posit cells from treated mice (anti-CBP); type: in vivo; conditions: YH250 2 mg/kg subcutaneously, 24 hrs
T1 construct: bone marrow Sca-1posit cells were isolated with Anti-Sca-1 microbeads; from tissue; host or cells: bone marrow Sca-1 positive cells of female C57/Black mice dosed in vivo
Description: YH250 was used in this study. Female C57/Black mice were administrated with either DMSO (solvent control) or YH250 (2 mg/kg) subcutaneously. 24 hrs later, bone marrow Sca-1posit cells were isolated with Anti-Sca-1 microbeads (Miltenyi Biotec, Cat#130-092-529) for co-immunoprecipitation (FIG. 4A). Cells were then lysed and incubated with either anti-CBP (A22) or anti-p300 (C20) antibodies. Then, the immunoprecipitation complex were electrophoresed and detected with antibodies to either β-catenin or γ-catenin. […] This confirms that YH250 directly disrupts the p300/catenin interaction thereby enhancing the CBP/catenin interaction in HSPCs.

LSK150+41+48+ cells = experiment: RNA sequencing of progenitor population from treated mice; type: in vivo, mouse; conditions: 2 mg/kg vs DMSO, 16 hours
Description: DMSO or YH250 (2 mg/kg) were administrated to female C57/Black mice.

cord blood CD34+ cells = experiment: Cord blood CD34+ cell culture 7 days, FACS surface marker analysis; type: cell-based, human; conditions: 7th day
Description: A method to analyze expanded cord blood CD34+ cell phenotype using FACS is established. In this study, cord blood cells were cultured in vitro with 4GF and different concentrations of p300/-catenin antagonist such as YH250. Because the limited CD34+ cells in culture system, GFP transgenic mouse bone marrow cells were isolated and added to the cells as carrier cells in FACS analysis. The bright GFP positive carrier cells were gated out and the targeting cord blood cells were further analyzed for their surface marker. FIG. 13A depicts carrier cell only in FACS analysis.
Cord blood CD34+ cells were cultured in medium containing either 4GF or 6GF with different concentration of p300/-catenin antagonist YH250. At 7th day in culture, cells were recovered and mixed with carrier cells from GFP mice bone marrow. Antibodies to human HSC surface protein are added to the cells and human CD45posit cells were gated for FACS analysis. […] In 6GF medium, 10 μM of YH250 also gives more human CD45+CD34+ cells compared with DMSO (73.3% vs 66.2%, Table 5).

Wnt/β-catenin pathway = experiment: SuperTOPFLASH (STF1.1 Hek-293) Wnt/β-catenin-driven luciferase reporter; type: cell-based; conditions: Homo sapiens, HEK293; STF1.1 Hek-293; 1 hour pre-incubation, 10 mM LiCl 24 hours
Description: A. Wnt/β-Catenin Activity: The Initial SuperTOPFLASH Screen.
Hek293 cells were stably transfected with plasmid that contains multiple TCF/LEF fragments in front of Luciferase gene. Wnt/β-catenin activity was determined from luciferase expression levels. […] Briefly, stably transfected Hek-293, STFI.1 (Wnt/β-catenin-driven luciferase) and Survivin-Hek-293 (1 Kb Human survivin promoter-driven luciferase) cells were maintained in DMEM, 10% FBS, Pen/Strep with 400 μg/mL G418 or 2 μg/mL puromycin, respectively. To check the activity of ICG-001, YH249, and YH250, the cells were split into white-opaque 96-well plates at 10,000 cells per well and allowed to attach overnight. For SuperTOPLASH, the inhibitors were added to the cells and pre-incubated for 1 hour prior to stimulation with 10 mM Li Cl for 24 hours. Luciferase activity was read using BrightGlo (Promnega) luciferase substrate. For survivin/luc, the inhibitors were added to the cells and incubated for 24 hours prior to readout. To calculate IC5o values, the resulting curve was fitted to a four-parameter logistic model (4PL) using GraphPad Prism 5 software.
An endogenous human survivin 1 kb promoter was inserted before a luciferase gene. […] R1 and R2 were diversified in this study. Percent inhibition of luciferase activity was calculated according to the following equations; % inhibition of STF 1.1 reporter activity=(I−RLU(10 mM LiCl) treated/RLU(10 omM LiCl) vehicle×control)100, % inhibition of Survivin reporter activity=(1−RLUtreated/RLU vehicle control)×100. Error bars indicate the mean±SE of 3 separate experiments. Selectivity (FIG. 2H) was calculated by IC50 value for Survivin-Hek-293/IC50 value for STF 1.1.

T1 sequence (P45481 2-2441 limits assumed): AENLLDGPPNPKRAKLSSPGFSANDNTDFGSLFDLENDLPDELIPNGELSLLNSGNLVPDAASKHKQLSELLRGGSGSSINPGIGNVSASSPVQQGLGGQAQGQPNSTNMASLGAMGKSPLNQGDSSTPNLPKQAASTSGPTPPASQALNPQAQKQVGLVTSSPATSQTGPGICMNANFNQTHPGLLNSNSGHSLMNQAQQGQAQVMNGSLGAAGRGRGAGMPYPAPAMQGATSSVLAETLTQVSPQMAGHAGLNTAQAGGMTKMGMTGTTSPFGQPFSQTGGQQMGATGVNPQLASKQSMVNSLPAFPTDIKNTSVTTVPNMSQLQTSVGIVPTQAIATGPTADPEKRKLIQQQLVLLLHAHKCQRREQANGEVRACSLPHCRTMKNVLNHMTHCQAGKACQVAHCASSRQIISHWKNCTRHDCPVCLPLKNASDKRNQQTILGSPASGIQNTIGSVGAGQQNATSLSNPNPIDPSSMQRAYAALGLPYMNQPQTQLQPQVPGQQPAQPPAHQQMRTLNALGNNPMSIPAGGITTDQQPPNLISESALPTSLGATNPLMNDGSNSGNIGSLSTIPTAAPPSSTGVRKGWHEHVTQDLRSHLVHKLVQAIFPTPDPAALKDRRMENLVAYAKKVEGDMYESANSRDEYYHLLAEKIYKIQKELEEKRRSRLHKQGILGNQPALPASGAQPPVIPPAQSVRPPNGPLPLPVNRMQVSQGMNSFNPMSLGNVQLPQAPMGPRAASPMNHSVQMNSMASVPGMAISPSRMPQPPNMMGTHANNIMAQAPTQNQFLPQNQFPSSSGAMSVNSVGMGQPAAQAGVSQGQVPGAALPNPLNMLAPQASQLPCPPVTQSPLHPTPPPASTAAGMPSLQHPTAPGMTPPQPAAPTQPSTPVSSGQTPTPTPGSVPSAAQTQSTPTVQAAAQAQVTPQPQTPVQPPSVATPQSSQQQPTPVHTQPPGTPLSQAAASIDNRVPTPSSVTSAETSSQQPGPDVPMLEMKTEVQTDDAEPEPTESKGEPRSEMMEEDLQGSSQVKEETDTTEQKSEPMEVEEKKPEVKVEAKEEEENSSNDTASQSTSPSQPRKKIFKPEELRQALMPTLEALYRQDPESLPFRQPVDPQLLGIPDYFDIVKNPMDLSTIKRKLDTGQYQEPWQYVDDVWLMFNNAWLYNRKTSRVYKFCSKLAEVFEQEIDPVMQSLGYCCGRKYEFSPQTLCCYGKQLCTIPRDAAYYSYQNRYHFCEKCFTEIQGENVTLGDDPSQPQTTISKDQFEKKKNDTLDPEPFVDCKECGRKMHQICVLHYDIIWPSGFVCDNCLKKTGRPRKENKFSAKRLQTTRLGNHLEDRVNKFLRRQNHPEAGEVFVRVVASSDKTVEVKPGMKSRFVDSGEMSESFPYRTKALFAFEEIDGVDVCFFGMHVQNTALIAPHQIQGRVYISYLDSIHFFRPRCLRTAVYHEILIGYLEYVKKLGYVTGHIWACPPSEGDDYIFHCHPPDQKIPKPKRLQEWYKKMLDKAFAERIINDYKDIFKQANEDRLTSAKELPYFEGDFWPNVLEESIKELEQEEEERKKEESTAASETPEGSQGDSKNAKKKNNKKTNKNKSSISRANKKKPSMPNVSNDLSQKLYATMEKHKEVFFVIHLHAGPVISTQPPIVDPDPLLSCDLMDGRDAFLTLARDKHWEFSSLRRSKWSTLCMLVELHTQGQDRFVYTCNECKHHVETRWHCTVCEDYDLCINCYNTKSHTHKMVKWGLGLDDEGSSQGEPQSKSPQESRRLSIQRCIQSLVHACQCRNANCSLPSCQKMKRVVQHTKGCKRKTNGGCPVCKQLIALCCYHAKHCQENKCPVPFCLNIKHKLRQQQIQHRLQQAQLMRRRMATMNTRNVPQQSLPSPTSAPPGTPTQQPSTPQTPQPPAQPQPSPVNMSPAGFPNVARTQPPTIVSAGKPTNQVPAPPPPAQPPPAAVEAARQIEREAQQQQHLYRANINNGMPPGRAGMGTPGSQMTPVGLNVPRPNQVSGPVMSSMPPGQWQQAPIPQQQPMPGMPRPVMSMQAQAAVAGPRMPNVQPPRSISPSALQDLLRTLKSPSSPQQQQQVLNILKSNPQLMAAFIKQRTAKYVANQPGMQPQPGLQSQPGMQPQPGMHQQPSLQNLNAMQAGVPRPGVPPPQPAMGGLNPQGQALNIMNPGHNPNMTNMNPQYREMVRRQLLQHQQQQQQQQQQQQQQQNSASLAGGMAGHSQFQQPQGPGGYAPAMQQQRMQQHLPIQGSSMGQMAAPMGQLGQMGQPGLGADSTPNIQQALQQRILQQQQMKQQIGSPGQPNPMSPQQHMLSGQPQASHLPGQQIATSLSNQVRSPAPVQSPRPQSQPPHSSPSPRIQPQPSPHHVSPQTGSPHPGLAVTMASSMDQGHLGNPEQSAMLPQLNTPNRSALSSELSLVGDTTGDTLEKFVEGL

COc1cccc(CNC(=O)N2C3CN(Cc4cc(Cl)cc(Cl)c4N(C)C)C(=O)[C@H](Cc4ccc(O)cc4)N3C(=O)CN2C)c1OC (stereo partly drawn) [YH250]
apoptosis (cleaved PARP) in LSK, lineage-negt and lineage-posit population (bone marrow cells): significantly less apoptosis | CBP/γ-catenin interaction [1]: promotes CBP/γ-catenin interaction | Fold-Change Car1 (LSK150+41+48+ cells): −12.1 fold | Fold-Change Gm26377 (miRNA) (LSK150+41+48+ cells): −3.19 fold | Fold-Change Ighm (LSK150+41+48+ cells): 2.36 fold | Fold-Change Ighv11-2 (LSK150+41+48+ cells): 4.42 fold | Fold-Change Igkv19-93 (LSK150+41+48+ cells): 3.12 fold | Fold-Change Mid1 (LSK150+41+48+ cells): −2.8 fold | %34 + 38-45RA-33- (cord blood CD34+ cells; 4GF (SF6T), 1 μM, DMSO 3.9): 3.5% | %33-45RA- (cord blood CD34+ cells; 4GF (SF6T), 1 μM, DMSO 4.5): 5.0% | % CD3+ (cord blood CD34+ cells; 4GF (SF6T), 1 μM, DMSO 12.2): 16.0% | %34 + 38- (cord blood CD34+ cells; 4GF (SF6T), 1 μM, DMSO 64.5): 51.7% | %34+ (cord blood CD34+ cells; 4GF (SF6T), 1 μM, DMSO 79.1): 64.1% | %33-45RA- (cord blood CD34+ cells; 4GF (SF6T), 3 μM): 5.8% | %34+ (cord blood CD34+ cells; 4GF (SF6T), 3 μM): 84% | %34 + 38- (cord blood CD34+ cells; 4GF (SF6T), 3 μM): 65.5% | %34 + 38-45RA-33- (cord blood CD34+ cells; 4GF (SF6T), 3 μM): 5.2% | % CD3+ (cord blood CD34+ cells; 4GF (SF6T), 3 μM): 9.5% | %33-45RA- (cord blood CD34+ cells; 4GF (SF6T), 10 μM): 4.9% | %34+ (cord blood CD34+ cells; 4GF (SF6T), 10 μM): 89.1% | %34 + 38- (cord blood CD34+ cells; 4GF (SF6T), 10 μM): 65.3% | %34 + 38-45RA-33- (cord blood CD34+ cells; 4GF (SF6T), 10 μM): 4.5% | % CD3+ (cord blood CD34+ cells; 4GF (SF6T), 10 μM): 4.5% | %34 + 38-45RA-33- (cord blood CD34+ cells; 6GF (SF6T3G), 1 μM, DMSO 2.3): 4.4% | %33-45RA- (cord blood CD34+ cells; 6GF (SF6T3G), 1 μM, DMSO 2.5): 5.8% | % CD3+ (cord blood CD34+ cells; 6GF (SF6T3G), 1 μM, DMSO 22.6): 20.1% | %34 + 38- (cord blood CD34+ cells; 6GF (SF6T3G), 1 μM, DMSO 56.4): 53.9% | %34+ (cord blood CD34+ cells; 6GF (SF6T3G), 1 μM, DMSO 66.2): 62% | %33-45RA- (cord blood CD34+ cells; 6GF (SF6T3G), 3 μM): 5.6% | %34+ (cord blood CD34+ cells; 6GF (SF6T3G), 3 μM): 66.1% | %34 + 38- (cord blood CD34+ cells; 6GF (SF6T3G), 3 μM): 55.8% | %34 + 38-45RA-33- (cord blood CD34+ cells; 6GF (SF6T3G), 3 μM): 4.2% | % CD3+ (cord blood CD34+ cells; 6GF (SF6T3G), 3 μM): 18.8% | %33-45RA- (cord blood CD34+ cells; 6GF (SF6T3G), 10 μM): 6.1% | %34+ (cord blood CD34+ cells; 6GF (SF6T3G), 10 μM): 73.3% | %34 + 38- (cord blood CD34+ cells; 6GF (SF6T3G), 10 μM): 57.9% | %34 + 38-45RA-33- (cord blood CD34+ cells; 6GF (SF6T3G), 10 μM): 4.2% | % CD3+ (cord blood CD34+ cells; 6GF (SF6T3G), 10 μM): 13.8% | pIC50 (Wnt/β-catenin pathway): > 7.00
